Results on 22 compounds are retold here after US9645147B2, “Recombinant polypeptide construct comprising Plasmodium falciparum circumsporozoite protein HLA class I restricted T-cell epitopes” (priority 2013, dated 2017).

What all share (type): cell-based, human
For assay [1], the system named is PBMC from volunteers immunized with Ad-CA or Ad-C. Description: IFN-γ ELISpot assay with cryopreserved PBMC of immunized volunteers. Conditions: for 15 mer sfc/m: Table 2, individual 15mer at 10 μg/mL; for ELISpot response to synthesized epitope (in words): volunteers, positive = p<0.05, at least doubling and at least ten sfc over negative control; for ELISpot response to individual 15mer peptide (in words): volunteers immunized with Ad-CA or Ad-C; for Epitope sfc/m: Table 4. The procedure:
Previous studies have confirmed that recall-T cell responses, as assayed by ELISpot, are detected using cryopreserved PBMCs although such responses are generally of a lower magnitude than fresh cells (Sedegah, et al., Malar J., 9: 241 (2011)).
The positive control was commercially obtained Class I Peptide Pool Plus (Anaspec, USA). Negative control was media with all supplements but no antigen-specific stimulant.
Throughout the studies, IFN-γ ELISpot assays were conducted as previously described (Sedegah, et al., Malar J., 9: 241 (2011); Wang, et al., PNAS (USA), 98: 10817-22 (2001)). Cryopreserved PBMC were suspended in 100 μL complete medium and stimulated with CSP peptides in 100 μL of complete medium at a final concentration of 10 μg/mL of each peptide tested (Wang, et al., PNAS (USA), 98: 10817-22 (2001)).
Cultures were incubated for 36 hours at 37° C., 5% CO2. Depending on availability of cells, each PBMC sample was assayed in duplicate, triplicate, or quadruplicate and the number of IFN-γ-secreting spot forming cells (sfc) was counted using an automated ELISpot reader (AID, GmbH, Germany). In duplicate assays, all values were used in analysis. […] The mean number of sfcs obtained in negative control wells was subtracted from the value of each test well from the same sample. Negative counts generated by this background subtraction were converted to zero. The mean number of spots of the test sample was then calculated and expressed as spot forming cells/million (sfc/m). A positive response was defined as a significant difference (p=<0.05) between average of the number of spot forming cells (sfc) in test wells and the average of negative control wells (Student's two tailed t-test), and at least a doubling of sfc in test wells relative to negative control wells, and a difference of at least ten sfc between test and negative control wells (Sedegah, et al., PLoS One, 6: e24586 (2011)).

In another assay the test system is CD4+ T cells. Put plainly: Intracellular cytokine staining (ICS), IFN-γ, CD4+ population. The procedure:
(§1) Intracellular cytokine staining (ICS) was performed as published previously (Stewart, et al, Infect. Immun., 75: 2283-90 (2007)). Cryopreserved PBMC were thawed, washed, and resuspended at 10×10^6 cells per mL in complete medium. Peptides were used at 10 μg/mL and costimulatory antibodies anti-CD28 and […] (BD Bioscience, San Jose, Calif.) were used at 1 μg/mL. Stimulants were added to cells and incubated at 37° C. with 5% CO2 for 2 hours. Cells were stained with anti-CD3, anti-CD4, anti-CD8, anti-IFN-γ, anti-TNFα, and anti-IL2 and the entire available sample was acquired on a BD LSRII using FACSDiVa (BD Bioscience) software. Data were analyzed using FlowJo Software (Treestar, Inc.). The gating strategy involved progressively measuring total cells; viable cells; lymphocytes; T cells; CD4+ or CD8+ populations; and finally a specific cell type expressing a specific cytokine. Results were transferred to Prism (GraphPad) for graphing and statistical analysis. Data for peptides were corrected for media responses. A positive response was greater than the medium controls+3 standard deviations (0.03%).

The next assay deals with CD8+ T cells. Put plainly: Intracellular cytokine staining (ICS), IFN-γ, CD8+ population. The procedure: as §1
Assay [2] concerns PBMC depleted of T-cell subsets. Put plainly: ELISpot IFN-γ after T-cell subset depletion (CD4+ or CD8+ Dynabeads, mock control). The text has this: For characterization of ELISpot IFN-γ-producing cells by T-cell subset depletions PBMC were depleted of T-cell subsets using anti-human CD4+ or anti-CD8+ coated Dynabeads M-450 (Dynal, Great Neck, N.Y.) following the manufacturer's instructions. Mock depletion was done with Dynabeads coated with sheep anti-mouse IgG. Flow cytometry confirmed that T-cell subset depletions were >99% in all experiments. Data are presented as the spot-forming cells/million (sfc/m) and percent decrease or increase in activity after depletion.
To further evaluate the predicted epitopes, ELISpot depletion assays were performed using PBMC from four volunteers stimulated with six predicted and tested epitopes. CD8+ T cell depletion reduced responses to Cp1 and Cp9 by 82%100%.

The mark [3] stands for this setting: ICS assays, volunteers of Table 6.
Setting [4] is: volunteer 58 (Ad-C), synthesized 8-10mer epitope.
The mark [5] stands for this setting: volunteer 156 (Ad-CA), synthesized 8-10mer epitope.

Entries after “also recorded” stand apart in the source; their conditions may differ. Peptide text beside a SMILES is read from it.

In turn, DKHIKEYLNKIQNSL [Cp6-C47] displayed a 15 mer sfc/m in assay [1] (volunteer 61 (Ad-C)) of 48 sfc/m.

For the compound `CC(C)C[C@H](NC(=O)[C@H](C)NC(=O)[C@H](CCC(=O)O)NC(=O)[C@@H](NC(=O)[C@H](Cc1ccccc1)NC(=O)[C@H](CC(C)C)NC(=O)[C@@H](N)Cc1ccccc1)C(C)C)C(=O)N[C@@H](Cc1ccccc1)C(=O)N[C@@H](CCC(N)=O)C(=O)O` [Epitope E1a] (H-FLFVEALFQ-OH; N-terminus and C-terminus assumed), the “ELISpot response to synthesized epitope (in words)” value in assay [1] is listed as “demonstrated activity”. The “ICS CD4+ T cell recall responses (in words)” value in the assay with CD4+ T cells (setting [3]) is on record as “negative”. Moreover, the “CD4+ % (per cent of CD4+ T cells expressing IFN-γ)” value in the assay with CD4+ T cells (V156, ICS, positive >0.03%) turned out to be 0.03%. The “ICS CD8+ T cell recall responses (in words)” value with CD8+ T cells (setting [3]) is on record as “positive”. Also, the “CD8+ % (per cent of CD8+ T cells expressing IFN-γ)” value in the assay with CD8+ T cells (V156, ICS, positive >0.03%) is recorded as 0.34%. In addition, the “confirmation as recalling CD8+ T cell responses” value in assay [2] (ELISpot depletion and ICS studies) is on record as “confirmed as recalling CD8+ T cell responses”. Further, in assay [2] (V156, after CD4+ T cell depletion), the “CD4+ depl. sfc/m” value is given as 215 sfc/m. Moreover, the “CD4+ depl. (%) percent change in ELISpot activity” value in assay [2] (V156, after CD4+ T cell depletion vs control depletion) is listed as −12%. Moreover, in assay [2] (V156, after CD8+ T cell depletion), the “CD8+ depl. sfc/m” value is recorded as 91 sfc/m. For the same compound, in assay [2] (V156, after CD8+ T cell depletion vs control depletion), the “CD8+ depl. (%) percent change in ELISpot activity” value is listed as −73%. The Control dept. sfc/m in assay [2] (V156, mock (control) depletion) came to 245 sfc/m.

In the case of “SVSSFLFVEALFQEY [Cp1-C3, 15mer CSP peptide aa 9-23]”, the figures for the 15 mer sfc/m in assay [1] (volunteer 05 (Ad-CA)), in assay [1] (volunteer 58 (Ad-C)) and in assay [1] (volunteer 69 (Ad-C)) were 65 sfc/m, 29 sfc/m and 385 sfc/m, respectively. Also, the “ELISpot response to individual 15mer peptide (in words)” value in assay [1] was “positive”.

FLFVEALFQE [Epitope E1]: the Epitope sfc/m in assay [1] (setting [4]) was found to be 49 sfc/m; in assay [1] (setting [5]), 105 sfc/m. Also, in assay [1], the “ELISpot response to synthesized epitope (in words)” value is listed as “active; also recorded: positive; also recorded: demonstrated activity”.

Compound “EKKICKMEKCSSVFN [Cp9-C60, 15mer CSP peptide aa 365-379]” came in with a 15 mer sfc/m in assay [1] (volunteer 61 (Ad-C)) of 39 sfc/m.

With “EALFQEYQCYGSSSN [Cp1-05, 15mer CSP peptide aa 17-31]”, the 15 mer sfc/m in assay [1] (volunteer 58 (Ad-C)) amounted to 105 sfc/m.

As for “VNSSIGLIMVLSFLF [Cp9-C64, 15mer CSP peptide aa 381-395]”, in assay [1] (volunteer 08 (Ad-CA)), the 15 mer sfc/m came out at 91 sfc/m.

With “ELNYDNAGTNLYNEL [Cp2-C10, 15mer CSP peptide aa 37-51]”, in assay [1] (volunteer 41 (Ad-C)), the 15 mer sfc/m is 35 sfc/m.

Consider “NELEMNYYGKQENWY [Cp2-C13, 15mer CSP peptide aa 49-63]”, for which the 15 mer sfc/m in assay [1] (volunteer 01 (Ad-CA)) amounted to 116 sfc/m; in assay [1] (volunteer 12 (Ad-CA)) it was 334 sfc/m.

Take “VFNVVNSSIGLIMVL [Cp9-C63, 15mer CSP peptide aa 377-391]”: the 15 mer sfc/m is on record as 109 sfc/m in assay [1] (volunteer 08 (Ad-CA)) and 80 sfc/m in assay [1] (volunteer 61 (Ad-C)). Further, the “ELISpot response to individual 15mer peptide (in words)” value in assay [1] is reported as “positive”.

Consider “FLFVEALFQEYQCYG [Cp1-C4, 15mer CSP peptide aa 13-27]”, for which the 15 mer sfc/m amounted to 48 sfc/m in assay [1] (volunteer 01 (Ad-CA)), 44 sfc/m in assay [1] (volunteer 05 (Ad-CA)), 87 sfc/m in assay [1] (volunteer 12 (Ad-CA)) and 368 sfc/m in assay [1] (volunteer 69 (Ad-C)). The “ELISpot response to individual 15mer peptide (in words)” value in assay [1] was “positive”.

As to `CC(C)C[C@H](NC(=O)[C@H](C)NC(=O)[C@H](CCC(=O)O)NC(=O)[C@@H](NC(=O)[C@H](Cc1ccccc1)NC(=O)[C@@H](N)CC(C)C)C(C)C)C(=O)N[C@@H](Cc1ccccc1)C(=O)N[C@@H](CCC(N)=O)C(=O)N[C@@H](CCC(=O)O)C(=O)N[C@@H](Cc1ccc(O)cc1)C(=O)O` [Epitope E3] (H-LFVEALFQEY-OH; N-terminus and C-terminus assumed), the Epitope sfc/m in assay [1] (volunteer 69 (Ad-C), synthesized 8-10mer epitope) came out at 259 sfc/m; in assay [1] (volunteer 127 (Ad-CA), synthesized 8-10mer epitope) it was 99 sfc/m. Besides, the “ELISpot response to synthesized epitope (in words)” value in assay [1] is recorded as “active; also recorded: positive; also recorded: demonstrated activity”.

As for “KCSSVFNVVNSSIGL [Cp9-C62, 15mer CSP peptide aa 373-387]”, the 15 mer sfc/m in assay [1] (volunteer 01 (Ad-CA)) is on record as 116 sfc/m.

For SVFNVVNSSI [Epitope E13], the Epitope sfc/m is on record as 28 sfc/m in assay [1] (volunteer 37 (Ad-C), synthesized epitope, single value or first of two assays) and 80 sfc/m in assay [1] (setting [4]). Also, the “ELISpot response to synthesized epitope (in words)” value in assay [1] is given as “positive; also recorded: demonstrated activity”.

As to “IMVLSFLFL (listed as Plasmodium falciparum) [Epitope E21, CSP aa 388-396]”, the Epitope sfc/m in assay [1] (volunteer 125 (Ad-CA), synthesized 8-10mer epitope) stood at 29 sfc/m. Moreover, the “ELISpot response to synthesized epitope (in words)” value in assay [1] is given as “low to modest response; also recorded: demonstrated activity”.

“TNLYNELEMNYYGKQ [Cp2-C12, 15mer CSP peptide aa 45-59]”: the 15 mer sfc/m in assay [1] (volunteer 01 (Ad-CA)) is recorded as 119 sfc/m; in assay [1] (volunteer 12 (Ad-CA)), 411 sfc/m.

Turning to KEYLNKIQNSLSTEW [Cp6-C48], the 15 mer sfc/m in assay [1] (volunteer 05 (Ad-CA)) is 106 sfc/m; in assay [1] (volunteer 41 (Ad-C)), 103 sfc/m; in assay [1] (volunteer 58 (Ad-C)), 45 sfc/m. Also, the “ELISpot response to individual 15mer peptide (in words)” value in assay [1] is on record as “positive”.

Turning to `CC[C@H](C)[C@H](NC(=O)[C@H](C)N)C(=O)N[C@@H](CC(C)C)C(=O)N[C@@H](CO)C(=O)N[C@H](C(=O)N[C@@H](CO)C(=O)N[C@@H](CO)C(=O)N[C@@H](Cc1ccccc1)C(=O)N[C@@H](CC(C)C)C(=O)O)C(C)C` [Epitope E18a], in assay [1], the “ELISpot response to synthesized epitope (in words)” value is “demonstrated activity”.

In turn, “QEYQCYGSSSNTRVL [Cp1-C6, 15mer CSP peptide aa 21-35]” had a 15 mer sfc/m in assay [1] (volunteer 58 (Ad-C)) of 83 sfc/m.

Turning to “SSIGLIMVLSFLFLN [Cp9-C65, 15mer CSP peptide aa 383-397]”, the 15 mer sfc/m in assay [1] (volunteer 01 (Ad-CA)) worked out at 46 sfc/m; in assay [1] (volunteer 02 (Ad-CA)), 44 sfc/m; in assay [1] (volunteer 08 (Ad-CA)) it was 62 sfc/m.

On to AILSVSSFLF [Epitope E18], for which the Epitope sfc/m in assay [1] (volunteer 63 (Ad-C), synthesized 8-10mer epitope) is recorded as 41 sfc/m. For the same compound, the “ELISpot response to synthesized epitope (in words)” value in assay [1] is on record as “positive”.

`CC[C@H](C)[C@H](NC(=O)[C@@H](N)CC(C)C)C(=O)N[C@@H](CCSC)C(=O)N[C@H](C(=O)N[C@@H](CC(C)C)C(=O)N[C@@H](CO)C(=O)N[C@@H](Cc1ccccc1)C(=O)N[C@@H](CC(C)C)C(=O)N[C@@H](Cc1ccccc1)C(=O)N[C@@H](CC(C)C)C(=O)O)C(C)C` [Epitope E17]: the Epitope sfc/m in assay [1] (setting [5]) was 156 sfc/m. In addition, the “ELISpot response to synthesized epitope (in words)” value in assay [1] was “positive”.
